“And” between values parts separate entries of the source, which are not always exact repeats. Equal entries are not always repeated. Where two headings read alike, the source gives them in different places.
Key:
breast cancer MDA-MB-436 = experiment: In-vivo pharmacodynamic study on subcutaneous xenograft tumor model of breast cancer MDA-MB-436; parameters: species or system NOD/SCID mice; details: 0.1 mg/kg orally once daily
Description: Strain: NOD/SCID; Grade: SPF; Source: Beijing Vitron River Bio-technology Co., Ltd.
The cells were washed 3 times with pre-cooled PBS, centrifuged at 300 g for 10 min, collected, re-suspended in PBS, and counted with a blood cell counting chamber, and the cell concentration was adjusted. After cell collection, the cell suspension was pre-cooled on ice. 100 µL of the cell suspension was administered via subcutaneous injection into the dorsal flank of the mice, and the grouped treatment was started when the tumor volume reached 200-300 mm^3.
General observation: Observation of animals: all live experimental animals to be observed; Observation time: twice a day; Observation items: including but not limited to general performance, behavioral status, eyes, mouth, nose and mouth, ears, hair, stool, urine, genitalia and other toxic symptoms; If abnormalities are observed, provide a detailed description.
Animal assay: all viable experimental animals scheduled for assay; Assay time: All animals were weighed before the modeling for test grouping. After modeling, the mice were weighed once every 2 days, and the weight change of the mice was recorded in real time. Effective criteria: tumor volume (TV), relative tumor volume (RTV) and relative tumor growth rate of subcutaneously implanted tumor model. […] The calculation formula of tumor volume (TV) was: TV (mm^3) = a×b2×0.5, where a and b were the long diameter and short diameter, respectively.
The evaluation index for anti-tumor activity was the relative tumor growth rate T/C (%), and the calculation formula was as follows: T/C(%) = TRTV/CRTV × 100%; [formula]
Where, TRTV is relative tumor volume of the treatment group; CRTV is relative tumor volume of the negative control group. Therapeutic evaluation criteria: T/C (%)> 60 is considered ineffective; T/C (%) ≤ 60, and P < 0.05 (through statistical analysis) is considered effective. Measurement of tumor weight and tumor inhibition rate (%): At the end of the treatment period, the animals were euthanize, tumor masses dissected and isolated, tumors weighed, and photographs took. The tumor inhibition rate (%) was calculated by the formula below: [formula]
All raw data within the facility were collected manually according to the experimental scheme and the relevant guidelines of the research institution, or gathered by using a data acquisition system. Manually collected data can be transcribed into software such as Excel for analysis and reporting. The data from each group were quantitative, and the experimental data for each group of animals in the tables were expressed as mean ± standard deviation (Mean ± SD). In the figures, the experimental data ware described as mean ± standard error of the mean (Mean ± SEM). Statistical analysis, including t-tests and survival analysis, was performed by using the software such as EXCEL and GraphPad Prism.
After 24 days of administration, the tumor-bearing mice were anesthetized and euthanized. The tumor tissues were dissected, weighed, and photographed, and the tumor inhibition rate was calculated.

[1] = Pharmacokinetic evaluation of compound in Balb/c mice; type: in vivo; details: 1 mg/kg, PO; for AUC(0-t) / Cmax / half-life: male, mouse, plasma
Description: Sample preparation: About 0.2 mg of the compound was dissolved in 10 µL DMSO, then a sodium chloride injection was added to make a 0.1 mg·mL^-1 solution of the compound for administration.
Three mice were administered the compound intravenously (IV) at a dose of 1 mg·kg^-1, and the other three were administered the compound orally (PO) at the same dose. […] The plasma concentration of the drug was quantitatively analyzed with the LC-MS/MS method, and pharmacokinetic parameters were calculated, including the […] (Cmax), area under the concentration-time curve (AUC(0-t)), half-life (T1/2), clearance (CL), volume of distribution at steady state (Vdss), and bioavailability (F).

[2] = Pharmacokinetic evaluation of compound in SD rat
Description: Experimental procedure: The compound, a small amount of DMSO and a sodium chloride injection were added to prepare the final solution for administration. The compound was orally administered to 6 male SD rats. […] The supernatant was collected and transferred into a sample vial for assay. Range of standard curve: 10 - 10,000 ng·mL^-1.

[3] = test system: BRCA wild-type DLD-1 cells; experiment: Anti-proliferative activity assay of cell (CCK8), DLD-1; type: cell-based; details: Homo sapiens; BRCA wild-type DLD-1 cells, 72 h + 96 h, CCK8; read-out: DLD-1 IC50
PARP2 = biological target: T1, PARP2 (Homo sapiens, UniProt Q9UGN5); experiment: Determination of PARP2 enzyme (histone-coated plate, Biotin-NAD+); type: biochemical; details: read-out: PARP-2 IC50
T1 construct: purchased BPS 80502
T1 sequence (Q9UGN5 whole entry): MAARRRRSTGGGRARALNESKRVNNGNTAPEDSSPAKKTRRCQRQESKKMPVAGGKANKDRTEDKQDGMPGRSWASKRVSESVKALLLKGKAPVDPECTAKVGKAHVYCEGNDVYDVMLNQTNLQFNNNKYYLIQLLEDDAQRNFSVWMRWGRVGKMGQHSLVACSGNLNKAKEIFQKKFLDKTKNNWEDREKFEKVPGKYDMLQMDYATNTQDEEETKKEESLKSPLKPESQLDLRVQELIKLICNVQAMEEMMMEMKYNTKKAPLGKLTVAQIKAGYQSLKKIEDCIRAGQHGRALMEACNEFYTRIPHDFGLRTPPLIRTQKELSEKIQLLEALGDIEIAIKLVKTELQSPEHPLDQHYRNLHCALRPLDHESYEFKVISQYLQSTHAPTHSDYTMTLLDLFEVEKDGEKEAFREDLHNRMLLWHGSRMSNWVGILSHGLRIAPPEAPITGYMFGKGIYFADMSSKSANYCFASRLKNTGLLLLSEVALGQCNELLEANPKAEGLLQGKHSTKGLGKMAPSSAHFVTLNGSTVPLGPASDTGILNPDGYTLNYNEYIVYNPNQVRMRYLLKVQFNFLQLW
Description: • 1.2.1 Preparation of buffer solution: PBST: 1x PBS, 0.05% Tween-20; blocking solution: 1x PBS, 0.05% Tween-20, 5% BSA; reaction buffer solution: 50 mM HEPES (pH 7.5), 0.002% Tween-20, 0.1% BSA, 100 mM NaCl, 2mM DTT. • 1.2.2 Coating: A 100 ng/mL Histone coating solution was prepared by using 1x PBS, 25 uL of the coating solution was transferred to a 384-well reaction plate, and the reaction plate was coated overnight at 4°C. • 1.2.3 Washing: After the coating was completed, the coating solution was discarded, and the reaction plate was washed with the PBST solution by means of transferring 50uL of the PBST solution to the 384-well reaction plate, letting it stand for 5 min, discarding the washing solution, refilling the reaction plate, and repeating the washing process 3 times. Finally, the reaction plate was tapped dry and the next step of blocking was proceeded with. • 1.2.4 Blocking: 50 uL of the blocking solution was transferred to the 384-well reaction plate and set for 1 h. • 1.2.5 Washing: After the blocking was completed, the blocking solution was discarded, the reaction plate was washed 3 times with the PBST solution according to the method in Step 2, and the reaction plate was tapped dry. • 1.2.6 A 25/10× PARP2 solution was prepared, then 10 µL of the PARP2 solution was transferred to the 384-well reaction plate.

PARP5A = biological target: T2, PARP5A (Homo sapiens, UniProt O95271); experiment: Determination of PARP5A enzyme (histone-coated plate, Biotin-NAD+); type: biochemical
T2 construct: purchased BPS 80504
T2 sequence (O95271 1001-1327): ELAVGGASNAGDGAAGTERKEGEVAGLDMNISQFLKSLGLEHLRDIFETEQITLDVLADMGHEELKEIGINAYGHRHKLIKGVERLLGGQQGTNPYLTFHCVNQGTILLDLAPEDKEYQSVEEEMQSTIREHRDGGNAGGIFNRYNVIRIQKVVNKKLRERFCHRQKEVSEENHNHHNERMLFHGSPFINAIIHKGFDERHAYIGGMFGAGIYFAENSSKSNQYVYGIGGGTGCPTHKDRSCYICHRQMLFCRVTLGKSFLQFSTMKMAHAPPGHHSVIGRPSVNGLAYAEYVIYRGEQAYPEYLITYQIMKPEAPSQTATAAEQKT
Description: • 1.3.1 Preparation of buffer solution solution: PBST: 1x PBS, 0.05% Tween-20; blocking solution: 1x PBS, 0.05% Tween-20, 5% BSA; reaction buffer solution: 50 mM HEPES (pH 7.5), 0.002% Tween-20, 0.1% BSA, 100 mM NaCl, 2mM DTT. • 1.3.2 Coating: A 100 ng/mL Histone coating solution was prepared by using 1x PBS, 25 uL of the coating solution was transferred to a 384-well reaction plate, and the reaction plate was coated overnight at 4°C. • 1.3.3 Washing: After the coating was completed, the coating solution was discarded, and the reaction plate was washed with the PBST solution by means of transferring 50uL of the PBST solution to the 384-well reaction plate, letting it stand for 5 min, discarding the washing solution, refilling the reaction plate with the PBST solution, and repeating the washing process 3 times. Finally, the reaction plate was tapped dry and the next step of blocking was proceeded with. • 1.3.4 Blocking: 50 uL of the blocking solution was transferred to the 384-well reaction plate and set for 1 h. • 1.3.5 Washing: After the blocking was completed, the blocking solution was discarded, the reaction plate was washed 3 times with the PBST solution according to the method in Step 2, and the reaction plate was tapped dry. • 1.3.6 A 25/10× PARP5A solution was prepared, then 10 µL of the PARP5A solution was transferred to the 384-well reaction plate. For negative control wells, 10 µL of the reaction buffer solution instead was transferred, resulting in the final concentration of PARP5A of 10 nM. • 1.3.7 A 2,000x compound was prepared, 50 nL of the compound was transferred to with echo, 19.95 uL of the reaction buffer solution was added into the compound, mix well, and 5 uL of the mixed compound was transferred to the 384-well reaction plate. • 1.3.8 A 25/10x Biotin-NAD+ solution was prepared, 10uL of the Biotin-NAD+ solution was transferred to the 384-well reaction plate, resulting in a final Biotin-NAD+ concentration of 2uM, and incubated at room temperature for 60 min. • 1.3.9 Washing: After the reaction was completed, the reaction liquid was discarded. The reaction plate was washed 3 times with the PBST solution according to the method in Step 2, and the reaction plate was tapped dry. • 1.3.10 A Stre-HRP solution was prepared by means of diluting it with the blocking solution, 25uL of the Stre-HRP solution was transferred to the reaction plate, and incubated at room temperature for 1 h, resulting the final concentration of Stre-HRP of 0.1 µg/mL. • 1.3.11 Washing: The Stre-HRP solution was discarded, the reaction plate was washed 3 times with the PBST solution according to the method in Step 2, and the reaction plate was tapped dry. • 1.3.12 Color developing: Femto-ECL Substrate A, Femto-ECL Substrate B, and QuantaRed ADHP were mixed in a 50:50:1 ratio.

PARP1 = PARP1 (Homo sapiens, UniProt P09874); experiment: Determination of PARP1 enzyme (histone-coated plate, chemiluminescence); type: biochemical
Chain of PARP1 (P09874 whole entry): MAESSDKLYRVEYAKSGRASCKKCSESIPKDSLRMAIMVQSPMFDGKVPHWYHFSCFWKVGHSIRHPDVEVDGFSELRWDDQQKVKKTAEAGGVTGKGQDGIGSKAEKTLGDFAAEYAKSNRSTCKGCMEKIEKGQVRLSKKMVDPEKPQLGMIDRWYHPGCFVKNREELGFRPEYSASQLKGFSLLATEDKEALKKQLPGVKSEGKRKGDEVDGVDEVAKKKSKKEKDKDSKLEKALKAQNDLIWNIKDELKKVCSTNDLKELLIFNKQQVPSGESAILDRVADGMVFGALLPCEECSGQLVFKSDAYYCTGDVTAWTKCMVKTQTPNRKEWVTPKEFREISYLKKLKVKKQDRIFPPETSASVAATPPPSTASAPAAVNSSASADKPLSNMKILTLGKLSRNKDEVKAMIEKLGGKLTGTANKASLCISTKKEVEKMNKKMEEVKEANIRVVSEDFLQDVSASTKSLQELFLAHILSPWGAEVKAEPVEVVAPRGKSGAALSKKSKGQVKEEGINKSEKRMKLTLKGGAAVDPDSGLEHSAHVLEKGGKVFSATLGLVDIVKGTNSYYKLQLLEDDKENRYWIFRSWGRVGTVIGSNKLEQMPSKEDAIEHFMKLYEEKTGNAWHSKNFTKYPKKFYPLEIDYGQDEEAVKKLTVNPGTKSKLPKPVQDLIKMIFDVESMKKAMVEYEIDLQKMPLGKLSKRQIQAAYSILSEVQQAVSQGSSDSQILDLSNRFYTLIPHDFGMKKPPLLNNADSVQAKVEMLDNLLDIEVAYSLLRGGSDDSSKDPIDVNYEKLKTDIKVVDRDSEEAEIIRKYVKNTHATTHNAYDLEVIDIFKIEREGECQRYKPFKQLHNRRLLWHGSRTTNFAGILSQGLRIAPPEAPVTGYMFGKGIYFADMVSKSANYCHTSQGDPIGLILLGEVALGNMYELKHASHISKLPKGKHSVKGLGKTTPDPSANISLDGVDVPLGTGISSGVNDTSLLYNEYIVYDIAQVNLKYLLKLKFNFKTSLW

SMILES	CL [1] [mL/min/kg]	Vdss [1] [L/kg]	AUC(0-t) [1] [ng·h/mL]	Cmax [1] [ng/mL]	half-life [1] [h]	IC50 [3] [nM]	IC50 (PARP2) [nM]	IC50 (PARP5A; read-out: PARP-5a IC50) [nM]	further results
CCc1cc2ncc(CN3CCN(c4ccc(C(=O)NC)nc4)CC3)cc2[nH]c1=O [AZD5305, reference compound]	0.17	0.16	126000	6300	14.7	–	–	–	RTV (breast cancer MDA-MB-436; 24 days): 1.0; Tumor inhibition rate (%) (breast cancer MDA-MB-436; 24 days): 80.79%; Tumor weight (g) X±SD (breast cancer MDA-MB-436; 24 days): 0.42 ± 0.17 g; Body weight (g) X±SD End (breast cancer MDA-MB-436; End, 24 days): 21.8 ± 1.0 g; Tumor volume (mm^3) X±SD End (breast cancer MDA-MB-436; End, 24 days): 270.3±87.4 mm^3; Body weight (g) X±SD Start (breast cancer MDA-MB-436; Start): 21.9 ± 0.7 g; Tumor volume (mm^3) X±SD Start (breast cancer MDA-MB-436; Start): 270.5±57.5 mm^3; CL ([2]; SD rat, PO): 0.5 mL/min/kg; Vdss ([2]; SD rat, PO): 0.35 L/kg; half-life ([2]; male, SD, rat, plasma, po): 10.8 h
[2H]C([2H])([2H])NC(=O)c1ccc(C2=CCN(Cc3ccc4nc(CC)c(=O)[nH]c4c3F)CC2)cn1 [Compound 4, 1'-((2-Ethyl-5-fluoro-3-oxo-3,4-dihydroquinoxalin-6-yl)methyl)-N-(methyl-d3)-1',2',3',6'-tetra hydro-[3,4'-bipyridine]-6-carboxamide]	0.17	0.14	122000	7370	11.5	> 10000	–	–	–
[2H]C([2H])([2H])NC(=O)c1ccc(C2=CCN(Cc3cnc4cc(CC)c(=O)[nH]c4c3)CC2)c(F)n1 [Compound 10, 1'-((7-ethyl-6-oxo-5,6-dihydro-1,5-naphthyridin-3-yl)methyl)-2-fluoro-N-(methyl-d3)-1',2',3', 6'-tetrahydro-[3,4'-bipyridine]-6-carboxamide]	–	0.15	44600	3840	4.64	> 10000	–	–	–
[2H]C([2H])([2H])NC(=O)c1ccc(C2=CCN(Cc3cnc4cc(C([2H])([2H])C([2H])([2H])[2H])c(=O)[nH]c4c3)CC2)cn1 [Compound 11, 1'-((7-(ethyl-d5)-6-oxo-5,6-dihydro-1,5-naphthyridin-3-yl)methyl)-N (methyl-d3)-1',2',3',6'-tet rahydro-[3,4'-bipyridine]-6-carboxamide]	–	–	–	–	–	–	> 1000	> 1000	–
[2H]C([2H])([2H])C([2H])([2H])c1cc2ncc(CN3CC=C(c4ccc(C(=O)NC5CC5)nc4)CC3)cc2[nH]c1=O [Compound 12, N-cyclopropyl-1'-((7-(ethyl-d5)-6-oxo-5,6-dihydro-1,5-naphthyridin-3-yl)methyl)-1',2',3',6'-tet rahydro-[3,4'-bipyridine]-6-carboxamide]	2.5	0.70	6950	2290	3.87	> 10000	> 1000	> 1000	PARP-1 inhibition ratio (PARP1): 99.8% and 99.9%
[2H]C([2H])([2H])C([2H])([2H])c1nc2ccc(CN3CC=C(c4ccc(C(=O)NC)nc4)CC3)c(F)c2[nH]c1=O [Compound 13, 1'-((2-(ethyl-d5)-5-fluoro-3-oxo-3,4-dihydroquinoxalin-6-yl)methyl)-N-methyl-1',2',3',6'-tetra hydro-[3,4'-bipyridine]-6-carboxamide]	–	–	–	–	–	> 10000	> 1000	–	IC50 (PARP5A): > 1000 nM; PARP-1 inhibition ratio (PARP1): 96.1% and 98.5%
[2H]C([2H])([2H])C([2H])([2H])c1nc2ccc(CN3CC=C(c4ccc(C(=O)NC)nc4F)CC3)c(F)c2[nH]c1=O [Compound 14, 1'-((2-(ethyl-d5)-5-fluoro-3-oxo-3,4-dihydroquinoxalin-6-yl)methyl)-2-fluoro-N-methyl-1',2',3 '6'-tetrahydro-[3,4'-bipyridine]-6-carboxamide]	–	–	–	–	–	> 10000	> 1000	> 1000	PARP-1 inhibition ratio (PARP1; 10 nM): 98.9%; PARP-1 inhibition ratio (PARP1; 100 nM): 99.1%
[2H]C([2H])([2H])Cc1cc2ncc(CN3CC=C(c4ccc(C(=O)NC)nc4)CC3)cc2[nH]c1=O [Compound 16, 1'-((7-(ethyl-2,2,2-d3)-6-oxo-5,6-dihydro-1,5-naphthyridin-3-yl)methyl)-N-methyl-1',2',3',6'-t etrahydro-[3,4'-bipyridine]-6-carboxamide]	–	–	–	–	–	–	> 1000	> 1000	–

Reference: patent publication EP4606801A1, “FUSED HETEROCYCLIC COMPOUND AND USE THEREOF” (Chengdu Zenitar Biomedical Technology Co., Ltd., priority 2022, dated 2024)
